Test results: ChEMBL document CHEMBL5465560, “Selectivity Literature for EUbOPEN Chemogenomic Library” (2024)

Assays:
[1] = target: T1, Myosin light chain kinase family member 4 (Homo sapiens) (UniProt Q86YV6); assay: Selectivity interaction (LanthaScreen Eu Kinase Binding Assay) EUB0001632a MYLK4; details: at 10 µM
T1 sequence (whole entry): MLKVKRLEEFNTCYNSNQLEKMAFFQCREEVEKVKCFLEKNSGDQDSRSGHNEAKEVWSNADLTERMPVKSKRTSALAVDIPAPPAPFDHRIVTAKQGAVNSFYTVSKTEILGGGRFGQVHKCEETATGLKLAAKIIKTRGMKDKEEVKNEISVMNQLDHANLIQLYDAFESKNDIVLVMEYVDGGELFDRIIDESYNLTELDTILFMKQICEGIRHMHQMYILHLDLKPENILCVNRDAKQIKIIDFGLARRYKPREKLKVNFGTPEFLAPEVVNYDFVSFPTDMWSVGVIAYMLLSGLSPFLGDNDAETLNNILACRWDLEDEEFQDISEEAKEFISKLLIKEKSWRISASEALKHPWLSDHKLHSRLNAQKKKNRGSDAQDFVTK

[2] = target: T2, Serine/threonine-protein kinase 17B (Homo sapiens) (UniProt O94768); assay: Selectivity interaction (KinomeScan (DiscoverX)) EUB0000666a STK17B; details: at 10 µM
T2 sequence (whole entry): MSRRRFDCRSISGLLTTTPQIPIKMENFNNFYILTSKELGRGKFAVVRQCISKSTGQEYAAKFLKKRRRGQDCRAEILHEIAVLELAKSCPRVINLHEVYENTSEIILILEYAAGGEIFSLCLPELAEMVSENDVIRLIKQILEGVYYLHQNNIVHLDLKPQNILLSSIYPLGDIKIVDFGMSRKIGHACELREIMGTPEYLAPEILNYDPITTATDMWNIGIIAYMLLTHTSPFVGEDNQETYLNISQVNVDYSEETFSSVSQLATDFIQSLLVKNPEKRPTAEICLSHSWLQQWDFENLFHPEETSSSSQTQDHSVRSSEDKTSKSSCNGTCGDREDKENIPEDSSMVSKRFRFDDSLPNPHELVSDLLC

[3] = target: Casein kinase II subunit alpha (Homo sapiens, UniProt P68400); assay: Selectivity interaction (Upstate Kinase Profiler service (Millipore)) EUB0000056c CSNK2A1; details: at 1 µM
[4] = target: Tyrosine-protein kinase HCK (Homo sapiens) (UniProt P08631); details: at 10 µM
[5] = target: Histone-lysine N-methyltransferase KMT5B (Homo sapiens) (UniProt Q4FZB7); assay: Selectivity interaction (Methyltransferase screen (Scintillation proximity assays)) EUB0000255b SUV420H1
[6] = target: T3, Myosin light chain kinase (Homo sapiens) (UniProt Q32MK0); assay: Selectivity interaction (KinomeScan (DiscoverX)) EUB0000695a MYLK3; details: at 100 nM
T3 sequence (whole entry): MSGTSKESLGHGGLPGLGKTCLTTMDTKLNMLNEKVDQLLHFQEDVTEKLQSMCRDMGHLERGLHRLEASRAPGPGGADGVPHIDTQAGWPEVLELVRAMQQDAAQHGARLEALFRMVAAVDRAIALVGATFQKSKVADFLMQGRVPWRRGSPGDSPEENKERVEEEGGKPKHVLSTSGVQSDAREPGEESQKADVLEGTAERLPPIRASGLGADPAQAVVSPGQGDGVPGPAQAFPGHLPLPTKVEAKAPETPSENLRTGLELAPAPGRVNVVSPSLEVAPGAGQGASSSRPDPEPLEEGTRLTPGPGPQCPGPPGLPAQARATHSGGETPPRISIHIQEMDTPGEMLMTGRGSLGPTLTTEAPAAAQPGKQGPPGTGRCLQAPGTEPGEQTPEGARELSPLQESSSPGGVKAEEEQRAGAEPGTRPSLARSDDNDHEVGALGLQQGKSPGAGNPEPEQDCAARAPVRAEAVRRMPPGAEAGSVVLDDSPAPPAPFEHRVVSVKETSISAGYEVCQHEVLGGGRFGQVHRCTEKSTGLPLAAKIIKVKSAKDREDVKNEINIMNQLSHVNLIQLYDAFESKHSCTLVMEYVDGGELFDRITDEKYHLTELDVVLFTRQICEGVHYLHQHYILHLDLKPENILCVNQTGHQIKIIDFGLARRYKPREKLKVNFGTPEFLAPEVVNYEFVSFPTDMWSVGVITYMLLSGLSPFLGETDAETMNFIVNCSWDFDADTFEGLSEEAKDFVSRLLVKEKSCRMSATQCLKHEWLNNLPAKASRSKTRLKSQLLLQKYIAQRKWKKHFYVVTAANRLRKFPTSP

[7] = target: T4, Serine/threonine-protein kinase Nek5 (Homo sapiens) (UniProt Q6P3R8); assay: Selectivity interaction (Ambit KINOMEscan and KiNATiv profiling in Jurkat cells) EUB0000090b NEK5; format: cell-based; details: at 1 µM
T4 sequence (whole entry): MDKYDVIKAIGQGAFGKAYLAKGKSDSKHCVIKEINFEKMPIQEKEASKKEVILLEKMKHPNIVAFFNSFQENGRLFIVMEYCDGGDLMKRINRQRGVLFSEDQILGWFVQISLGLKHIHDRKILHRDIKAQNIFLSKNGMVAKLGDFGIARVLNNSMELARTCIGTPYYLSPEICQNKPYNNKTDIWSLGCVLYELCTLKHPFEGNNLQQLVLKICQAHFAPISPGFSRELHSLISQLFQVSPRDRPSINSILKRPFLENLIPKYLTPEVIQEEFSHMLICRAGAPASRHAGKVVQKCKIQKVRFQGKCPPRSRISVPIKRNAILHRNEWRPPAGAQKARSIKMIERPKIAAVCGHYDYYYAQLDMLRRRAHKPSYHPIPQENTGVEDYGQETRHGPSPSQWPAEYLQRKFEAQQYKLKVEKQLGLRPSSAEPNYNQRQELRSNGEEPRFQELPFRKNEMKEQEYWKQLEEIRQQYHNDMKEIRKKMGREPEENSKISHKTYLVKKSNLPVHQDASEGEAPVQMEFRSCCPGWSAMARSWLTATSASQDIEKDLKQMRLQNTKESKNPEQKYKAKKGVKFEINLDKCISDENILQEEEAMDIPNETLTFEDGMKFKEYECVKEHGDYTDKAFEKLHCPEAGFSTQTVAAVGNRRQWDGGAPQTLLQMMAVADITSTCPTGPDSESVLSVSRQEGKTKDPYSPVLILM

[8] = target: Serine/threonine-protein kinase 25 (Homo sapiens) (UniProt O00506); assay: Selectivity interaction (KinomeScan (DiscoverX)) EUB0001079a STK25; details: at 1 µM
Insulin receptor = Insulin receptor (Homo sapiens, UniProt P06213); assay: Selectivity interaction (KinomeScan (DiscoverX)) EUB0000092b INSR; details: at 10 µM
[9] = test system: Mast/stem cell growth factor receptor Kit (Homo sapiens), P10721 [V559D,T670I]; details: at 10 µM
Sequence of Mast/stem cell growth factor receptor Kit (Homo sapiens), P10721 [V559D,T670I] (P10721 whole entry V559D/T670I): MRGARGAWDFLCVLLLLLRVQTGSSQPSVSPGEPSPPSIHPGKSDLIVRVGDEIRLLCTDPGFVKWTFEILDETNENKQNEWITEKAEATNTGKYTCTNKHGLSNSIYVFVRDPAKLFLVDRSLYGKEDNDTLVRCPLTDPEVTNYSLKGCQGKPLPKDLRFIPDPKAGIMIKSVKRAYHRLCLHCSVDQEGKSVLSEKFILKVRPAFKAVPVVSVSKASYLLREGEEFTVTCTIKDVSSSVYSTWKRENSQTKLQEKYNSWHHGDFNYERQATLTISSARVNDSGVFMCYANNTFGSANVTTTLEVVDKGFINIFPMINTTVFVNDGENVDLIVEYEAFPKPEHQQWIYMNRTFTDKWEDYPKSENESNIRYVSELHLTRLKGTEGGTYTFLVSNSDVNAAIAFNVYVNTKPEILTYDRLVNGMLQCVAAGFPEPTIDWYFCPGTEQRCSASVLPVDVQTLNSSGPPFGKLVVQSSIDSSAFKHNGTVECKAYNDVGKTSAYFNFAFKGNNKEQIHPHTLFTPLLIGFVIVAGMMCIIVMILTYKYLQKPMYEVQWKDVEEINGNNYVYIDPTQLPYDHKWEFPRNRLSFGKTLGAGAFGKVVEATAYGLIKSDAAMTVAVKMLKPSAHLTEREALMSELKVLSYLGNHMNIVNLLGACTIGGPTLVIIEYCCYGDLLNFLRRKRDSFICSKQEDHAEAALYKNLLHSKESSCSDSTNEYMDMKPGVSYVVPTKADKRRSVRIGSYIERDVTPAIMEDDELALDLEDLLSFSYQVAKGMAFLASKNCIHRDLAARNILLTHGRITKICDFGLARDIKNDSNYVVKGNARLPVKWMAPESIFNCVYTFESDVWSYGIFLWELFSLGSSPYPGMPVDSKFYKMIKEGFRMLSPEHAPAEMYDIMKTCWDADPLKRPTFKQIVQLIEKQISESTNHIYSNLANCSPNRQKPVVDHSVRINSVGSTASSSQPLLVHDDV

Sequence of Histone-lysine N-methyltransferase KMT5B (Homo sapiens) (Q4FZB7 whole entry, looked up): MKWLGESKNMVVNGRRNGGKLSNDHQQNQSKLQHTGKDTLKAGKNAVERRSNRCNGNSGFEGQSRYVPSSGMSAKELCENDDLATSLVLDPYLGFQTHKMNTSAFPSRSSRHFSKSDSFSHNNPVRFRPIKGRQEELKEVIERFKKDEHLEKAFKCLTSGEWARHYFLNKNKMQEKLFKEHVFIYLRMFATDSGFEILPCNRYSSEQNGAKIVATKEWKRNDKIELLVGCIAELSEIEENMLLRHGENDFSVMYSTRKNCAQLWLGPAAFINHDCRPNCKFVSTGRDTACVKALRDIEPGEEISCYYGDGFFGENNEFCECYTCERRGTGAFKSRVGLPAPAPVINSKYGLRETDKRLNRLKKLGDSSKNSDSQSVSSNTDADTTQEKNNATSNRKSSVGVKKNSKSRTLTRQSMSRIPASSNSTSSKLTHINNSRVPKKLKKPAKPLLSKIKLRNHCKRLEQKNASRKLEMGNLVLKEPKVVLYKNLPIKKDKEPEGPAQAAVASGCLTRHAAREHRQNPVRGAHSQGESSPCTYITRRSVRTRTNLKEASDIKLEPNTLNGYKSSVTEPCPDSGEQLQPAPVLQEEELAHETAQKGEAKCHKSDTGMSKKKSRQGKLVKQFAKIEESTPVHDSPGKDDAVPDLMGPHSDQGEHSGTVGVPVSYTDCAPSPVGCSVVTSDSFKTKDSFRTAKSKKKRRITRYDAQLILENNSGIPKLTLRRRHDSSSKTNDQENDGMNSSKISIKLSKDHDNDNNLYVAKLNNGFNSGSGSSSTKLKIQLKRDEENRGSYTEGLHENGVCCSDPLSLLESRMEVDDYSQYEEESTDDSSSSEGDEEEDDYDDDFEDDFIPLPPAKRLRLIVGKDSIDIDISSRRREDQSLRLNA
Sequence of Insulin receptor (P06213 28-758 limits assumed): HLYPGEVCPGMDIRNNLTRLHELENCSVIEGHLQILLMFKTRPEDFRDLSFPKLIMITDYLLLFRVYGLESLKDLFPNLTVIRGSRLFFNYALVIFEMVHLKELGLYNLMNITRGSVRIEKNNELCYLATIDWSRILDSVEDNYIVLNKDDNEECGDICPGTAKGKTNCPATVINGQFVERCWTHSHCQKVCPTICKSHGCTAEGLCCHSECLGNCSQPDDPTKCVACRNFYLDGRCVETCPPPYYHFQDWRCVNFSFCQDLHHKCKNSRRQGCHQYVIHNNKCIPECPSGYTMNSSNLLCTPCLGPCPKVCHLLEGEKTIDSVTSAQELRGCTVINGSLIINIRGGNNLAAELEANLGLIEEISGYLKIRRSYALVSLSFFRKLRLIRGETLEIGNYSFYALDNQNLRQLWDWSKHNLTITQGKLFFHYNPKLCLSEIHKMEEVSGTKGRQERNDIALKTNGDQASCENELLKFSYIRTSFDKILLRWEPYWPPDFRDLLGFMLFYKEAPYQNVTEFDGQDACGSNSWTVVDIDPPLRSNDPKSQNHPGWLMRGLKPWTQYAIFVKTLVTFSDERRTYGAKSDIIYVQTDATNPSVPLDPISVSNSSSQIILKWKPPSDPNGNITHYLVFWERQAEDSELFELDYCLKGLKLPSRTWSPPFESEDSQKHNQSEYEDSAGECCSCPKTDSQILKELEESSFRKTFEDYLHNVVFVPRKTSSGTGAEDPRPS
Sequence of Insulin receptor (P06213 763-1382 limits assumed): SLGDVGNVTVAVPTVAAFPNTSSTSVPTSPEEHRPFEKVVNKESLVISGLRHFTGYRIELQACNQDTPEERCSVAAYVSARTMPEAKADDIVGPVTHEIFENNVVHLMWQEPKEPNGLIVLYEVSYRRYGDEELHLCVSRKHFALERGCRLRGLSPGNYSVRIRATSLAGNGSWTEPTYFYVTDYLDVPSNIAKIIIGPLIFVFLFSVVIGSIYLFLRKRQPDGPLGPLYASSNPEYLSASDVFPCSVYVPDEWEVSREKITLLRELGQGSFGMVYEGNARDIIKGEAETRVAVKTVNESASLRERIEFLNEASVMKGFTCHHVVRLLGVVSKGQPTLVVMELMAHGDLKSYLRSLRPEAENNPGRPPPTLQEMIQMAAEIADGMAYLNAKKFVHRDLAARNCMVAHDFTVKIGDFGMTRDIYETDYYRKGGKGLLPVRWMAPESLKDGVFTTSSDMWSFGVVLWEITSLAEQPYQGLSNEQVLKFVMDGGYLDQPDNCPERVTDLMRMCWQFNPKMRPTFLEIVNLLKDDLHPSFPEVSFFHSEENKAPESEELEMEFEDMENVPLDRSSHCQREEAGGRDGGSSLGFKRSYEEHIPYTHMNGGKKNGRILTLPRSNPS
Sequence of Serine/threonine-protein kinase 25 (Homo sapiens) (O00506 whole entry, looked up): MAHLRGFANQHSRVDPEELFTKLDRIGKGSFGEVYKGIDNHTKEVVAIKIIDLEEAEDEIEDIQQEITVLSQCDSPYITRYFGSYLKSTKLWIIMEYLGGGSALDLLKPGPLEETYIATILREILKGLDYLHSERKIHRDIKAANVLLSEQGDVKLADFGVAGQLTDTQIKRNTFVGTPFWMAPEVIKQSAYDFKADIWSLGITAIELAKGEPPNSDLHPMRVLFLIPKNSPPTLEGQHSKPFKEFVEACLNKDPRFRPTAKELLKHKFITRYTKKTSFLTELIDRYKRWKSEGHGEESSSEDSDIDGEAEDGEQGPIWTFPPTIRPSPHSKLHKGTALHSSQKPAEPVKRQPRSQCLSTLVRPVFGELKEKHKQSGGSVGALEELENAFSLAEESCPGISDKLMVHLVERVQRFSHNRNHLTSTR
Sequence of Casein kinase II subunit alpha (P68400 whole entry, looked up): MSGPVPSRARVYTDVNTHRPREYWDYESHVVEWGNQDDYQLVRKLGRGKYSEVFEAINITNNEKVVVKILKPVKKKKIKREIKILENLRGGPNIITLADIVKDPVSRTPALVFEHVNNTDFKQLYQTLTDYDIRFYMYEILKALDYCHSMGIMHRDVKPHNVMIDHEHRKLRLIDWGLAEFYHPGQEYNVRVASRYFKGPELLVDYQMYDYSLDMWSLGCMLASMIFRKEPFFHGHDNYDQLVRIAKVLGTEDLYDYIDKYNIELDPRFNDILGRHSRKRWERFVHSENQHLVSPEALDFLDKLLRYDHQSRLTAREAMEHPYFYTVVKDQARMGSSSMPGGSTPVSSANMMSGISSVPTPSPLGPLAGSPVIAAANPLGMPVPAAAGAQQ
Sequence of Tyrosine-protein kinase HCK (Homo sapiens) (P08631 2-526 limits assumed): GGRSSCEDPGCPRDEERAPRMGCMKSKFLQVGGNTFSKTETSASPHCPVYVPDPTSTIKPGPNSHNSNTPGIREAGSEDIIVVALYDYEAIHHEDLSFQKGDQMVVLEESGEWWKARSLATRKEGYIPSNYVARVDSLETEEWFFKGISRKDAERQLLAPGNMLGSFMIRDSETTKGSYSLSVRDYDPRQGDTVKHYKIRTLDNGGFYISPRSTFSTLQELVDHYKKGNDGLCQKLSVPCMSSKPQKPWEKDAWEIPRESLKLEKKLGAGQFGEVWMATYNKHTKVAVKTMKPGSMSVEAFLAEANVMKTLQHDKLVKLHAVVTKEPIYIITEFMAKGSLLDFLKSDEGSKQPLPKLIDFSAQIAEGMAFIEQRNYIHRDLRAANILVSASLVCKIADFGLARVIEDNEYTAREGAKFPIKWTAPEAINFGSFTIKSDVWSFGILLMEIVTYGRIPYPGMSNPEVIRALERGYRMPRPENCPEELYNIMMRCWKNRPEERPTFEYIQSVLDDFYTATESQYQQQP

Compound: Cn1cc(-n2cnc3c(NCc4nc5cc(Cl)c(Cl)cc5[nH]4)nc(N4CCOCC4)nc32)cn1
- % of inhibition [1]: -25.4%

Compound: O=C(NOC[C@H](O)CO)c1ccc(F)c(F)c1Nc1ccc(I)cc1F
- % of control [2]: 100%

Compound: Cc1ccc(-c2ccc3c(ccc4sc5c(c43)NC[C@@H](C)NC5=O)n2)cn1
- % of inhibition [3]: 15%

Compound: CCN(CC)CCCCNc1ncc2cc(-c3cc(OC)cc(OC)c3)c(NC(=O)NC(C)(C)C)nc2n1
- % of control [4]: 100%

Compound: COCCN1CCC(c2cc(CN(C)C(=O)c3cccc(Oc4ccccc4)c3)ccn2)CC1
- % activity ([5]; at 1 µM): > 95%
- % activity ([5]; at 10 µM): > 90%

Compound: Cc1cc(F)c(C(=O)Nc2cccc(-c3nncn3C(C)C)n2)cc1-n1cnc(C2CC2)c1
- % of control [6]: 100%

Compound: CN(C)C/C=C/C(=O)Nc1ccc(C(=O)N2CCCC(Nc3ncc(Cl)c(-c4c[nH]c5ccccc45)n3)C2)cc1 (stereo unspecified)
- % of control [7]: 86%

Compound: Nc1cnc(N2CCc3cc(S(=O)(=O)Nc4c(F)cc(Cl)cc4F)cc(N4CCCC4=O)c32)nc1 [TP-020n]
- % of control [8]: 88%

Compound: CCC(=O)N1CCN(c2ccc(-n3c(=O)ccc4cnc5ccc(-c6cnc7ccccc7c6)cc5c43)cc2C(F)(F)F)CC1
- % of control (Insulin receptor): 7.6%

Compound: Cc1cc([C@@H](C)Nc2ccccc2C(=O)O)c2nc(N3CCOCC3)cc(=O)n2c1 [AZD-6482]
- % of control [9]: 91%
